This is an account of results in patent US12398111B2, “Triazine compounds and pharmaceutical use thereof” (Japan Tobacco Inc., priority 2014, dated 2025).

pIC50: −log10 of the molar value.

In this assay the target is T1, human mPGES-1 (Homo sapiens, UniProt O14684).
T1 construct: made in house; host or cells: FreeStyle CHO-S cells (Chinese hamster ovary), transient transfection with pcDNA3.1(+)/human mPGES-1; microsome fraction used
T1 sequence (O14684 1-152): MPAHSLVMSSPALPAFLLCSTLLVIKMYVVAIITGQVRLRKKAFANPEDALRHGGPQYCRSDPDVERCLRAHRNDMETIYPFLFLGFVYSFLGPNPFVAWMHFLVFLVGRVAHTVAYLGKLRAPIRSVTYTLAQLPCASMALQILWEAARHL
The assay is described as follows: Evaluation of human mPGES-1 enzyme inhibitory activity (PGE2 measured by HTRF, microsome fraction of CHO-S cells expressing human mPGES-1). Format: biochemical. To be noted: IC50 value; microsome fraction of CHO-S cells expressing human mPGES-1, PGE2 by HTRF. The method in brief:
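Enzyme source: microsomes from CHO-S cells transfected with human mPGES-1 and cultured 48 hr, diluted to 5 μg/mL protein in reduced GSH (12.5 mmol/L KPB solution). Test articles were in 0.1 mol/L potassium phosphate pH 7.4, final DMSO 2% (v/v). PGE2 formed was quantified by HTRF.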
Background: In TR-FRET formats the signal depends on donor and acceptor labels being close together.
Take `CN(Cc1ccc(Cl)c(-c2nc(O)nc(-c3ccc(OCC(C)(C)C)cc3)n2)c1)C(=O)C(C)(C)C(F)(F)F` [Example 1-196]: the pIC50 (commonly the negative decadic logarithm of the IC50, by convention in mol/L) is 7.38.

As for `COCc1ccc(Cl)c(-c2nc(O)nc(-c3ccc(OCC(C)(C)C)cc3)n2)c1` [Example 1-197], the pIC50 was 6.54.

Take `CC(C)(C)COc1ccc(-c2nc(O)nc(-c3cc(CCO)ccc3Cl)n2)cc1` [Example 1-198]: the pIC50 was 7.85.

As for `COCCc1ccc(Cl)c(-c2nc(O)nc(-c3ccc(OCC(C)(C)C)cc3)n2)c1` [Example 1-199], the pIC50 was 7.51. Compared with the last compound, the pIC50 is 0.34 log units lower.

The compound `CC(C)(C(=O)NCc1ccc(Cl)c(-c2nc(O)nc(-c3ccccc3)n2)c1)c1ccccc1` [Example 1-202] gave a pIC50 of 8.09. Against the preceding compound, the pIC50 is 0.58 log units higher.

On to `CC(C)(C)COc1ccc(-c2nc(O)nc(-c3cc(CCNC(=O)C(C)(C)C(F)(F)F)ccc3Cl)n2)cc1` [Example 1-203], for which the pIC50 was 7.70.

`CC(C)COCc1ccc(Cl)c(-c2nc(O)nc(-c3ccc(OCC(C)(C)C)cc3)n2)c1` [Example 1-204] showed a pIC50 of 7.47. Against the preceding compound, the pIC50 is 0.23 log units lower.

`CCCCc1ccc(Cl)c(-c2nc(O)nc(-c3ccc(OCC(C)(C)C)cc3)n2)c1` [Example 1-205] showed a negative-log IC50 (pIC50) of 6.44.

`CC(C)Cc1ccc(-c2nc(O)nc(-c3cc(CN(C)C(=O)C(C)(C)C(F)(F)F)ccc3Cl)n2)cc1` [Example 1-206] gave a pIC50 of 7.85. Compared with the last compound, the pIC50 is 1.41 log units higher.

Compound `CC(C)(C)COc1ccc(-c2nc(O)nc(-c3cc(CO)ccc3C(F)(F)F)n2)cc1` [Example 1-207] had a pIC50 of 8.37.

Compound `CC(C)(C)COc1ccc(-c2nc(O)nc(-c3cc(CNC(=O)C(C)(C)C(F)(F)F)ccc3C(F)(F)F)n2)cc1` [Example 1-208] showed a pIC50 of 7.80.

Take `CCN(Cc1ccc(Cl)c(-c2nc(O)nc(-c3ccc(OCC(C)(C)C)cc3)n2)c1)C(=O)OC(C)(C)C` [Example 1-209]: the pIC50 is 7.23.

For the compound `CCNCc1ccc(Cl)c(-c2nc(O)nc(-c3ccc(OCC(C)(C)C)cc3)n2)c1` [Example 1-210], the pIC50 is 6.54. Against the preceding compound, the pIC50 is 0.69 log units lower.

`CN(Cc1ccc(Cl)c(-c2nc(O)nc(-c3ccc(OCC4CCCCC4)cc3)n2)c1)C(=O)C(C)(C)C(F)(F)F` [Example 1-211] showed a pIC50 of 7.20.

Compound `CC(C)(C)COc1ccc(-c2nc(O)nc(-c3cc(CNCC(F)(F)F)ccc3Cl)n2)cc1` [Example 1-212] showed a pIC50 of 7.49.

Compound `CN(Cc1ccc(Cl)c(-c2nc(O)nc(-c3ccc(C#CC4CCCCC4)cc3)n2)c1)C(=O)C(C)(C)C(F)(F)F` [Example 1-213] had a pIC50 of 7.06.

For the compound `CC(C)(C)COc1ccc(-c2nc(O)nc(-c3cc(CC(C)(C)O)ccc3Cl)n2)cc1` [Example 1-214], the pIC50 is 7.62.

For `COC(C)(C)Cc1ccc(Cl)c(-c2nc(O)nc(-c3ccc(OCC(C)(C)C)cc3)n2)c1` [Example 1-215], the pIC50 was 6.34. This pIC50 lies 1.28 log units lower than the previous one.

Take `CC(O)Cc1ccc(Cl)c(-c2nc(O)nc(-c3ccc(OCC(C)(C)C)cc3)n2)c1` (stereo not drawn) [Example 1-216]: the pIC50 is 7.41.

In turn, `CC(C)(C)COc1ccc(-c2nc(O)nc(-c3cc(CCC(=O)NC(C)(C)C)ccc3Cl)n2)cc1` [Example 1-217] had a pIC50 of 6.90. Against the preceding compound, the pIC50 is 0.51 log units lower.

In the case of `CN(C)C(=O)CCc1ccc(Cl)c(-c2nc(O)nc(-c3ccc(OCC(C)(C)C)cc3)n2)c1` [Example 1-218], the pIC50 was 7.15.

`CC(C)COCc1ccc(Cl)c(-c2nc(O)nc(-c3ccc(C#CC4CCCCC4)cc3)n2)c1` [Example 1-219] showed a pIC50 of 7.39. This pIC50 lies 0.24 log units higher than the previous one.

As to `CN(Cc1ccc(Cl)c(-c2nc(O)nc(-c3ccccc3)n2)c1)C(=O)C(C)(C)C(F)(F)F` [Example 1-220], the pIC50 was 7.80.

Compound `CN(Cc1ccc(Cl)c(-c2nc(O)nc(-c3ccccc3)n2)c1)C(=O)C(C)(C)C` [Example 1-221] had a pIC50 of 7.10.

`CC(C)C(=O)N(C)Cc1ccc(Cl)c(-c2nc(O)nc(-c3ccccc3)n2)c1` [Example 1-222] had a negative logarithm of the IC50 (pIC50) of 6.78.

Take `CN(Cc1ccc(Cl)c(-c2nc(O)nc(-c3ccc(OCC(C)(C)C)cc3)n2)c1)S(=O)(=O)C(C)(C)C` [Example 1-223]: the pIC50 was 8.15.

For `CCC(=O)N(C)Cc1ccc(Cl)c(-c2nc(O)nc(-c3ccccc3)n2)c1` [Example 1-224], the pIC50 is 5.24.

In the case of `CCCC(=O)N(C)Cc1ccc(Cl)c(-c2nc(O)nc(-c3ccccc3)n2)c1` [Example 1-225], the pIC50 is 5.38. The pIC50 values of the last two compounds are within 0.2 log units of each other.

As to `CC(C)CC(=O)N(C)Cc1ccc(Cl)c(-c2nc(O)nc(-c3ccccc3)n2)c1` [Example 1-226], the pIC50 was 5.66.

The compound `CN(CCc1ccc(Cl)c(-c2nc(O)nc(-c3ccc(OCC(C)(C)C)cc3)n2)c1)C(=O)C(C)(C)C(F)(F)F` [Example 1-227] showed a pIC50 of 7.30.

Regarding `CN(Cc1ccc(Cl)c(-c2nc(O)nc(-c3ccccc3)n2)c1)C(=O)C1CCCC1` [Example 1-228], the pIC50 is 6.17.

`CN(Cc1ccc(Cl)c(-c2nc(O)nc(-c3ccccc3)n2)c1)C(=O)C1CCCCC1` [Example 1-229] gave a pIC50 of 6.27.

With `CN(Cc1ccc(Cl)c(-c2nc(O)nc(-c3ccccc3)n2)c1)C(=O)c1ccccc1` [Example 1-230], the pIC50 was 6.12.

Regarding `CCC(C)(C)C(=O)N(C)Cc1ccc(Cl)c(-c2nc(O)nc(-c3ccccc3)n2)c1` [Example 1-231], the pIC50 was 7.35. This pIC50 lies 1.23 log units higher than the previous one.

`CC(C)Cc1ccc(-c2nc(O)nc(-c3cc(CC(=O)N(C)C(C)(C)C)ccc3Cl)n2)cc1` [Example 1-232] gave a pIC50 of 6.28.

The compound `CCC(CC)C(=O)N(C)Cc1ccc(Cl)c(-c2nc(O)nc(-c3ccccc3)n2)c1` [Example 1-233] gave a pIC50 of 6.07. This pIC50 lies 0.21 log units lower than the previous one.

Take `COC(C)(C)C(=O)N(C)Cc1ccc(Cl)c(-c2nc(O)nc(-c3ccccc3)n2)c1` [Example 1-234]: the pIC50 is 6.00.

Compound `CCN(Cc1ccc(Cl)c(-c2nc(O)nc(-c3ccc(OCC(C)(C)C)cc3)n2)c1)C(=O)C(C)(C)C(F)(F)F` [Example 1-235] showed a negative logarithm of the IC50 (pIC50) of 7.15.

`CC1(C)CN(Cc2ccc(Cl)c(-c3nc(O)nc(-c4ccccc4)n3)c2)C1=O` [Example 1-236] gave a pIC50 of 6.58. Against the preceding compound, the pIC50 is 0.57 log units lower.

As for `CN(Cc1ccc(Cl)c(-c2nc(O)nc(-c3ccccc3)n2)c1)C(=O)C(C)(C)c1ccccc1` [Example 1-237], the pIC50 is 5.89. Compared with the last compound, the pIC50 is 0.69 log units lower.

For `CN(Cc1ccc(Cl)c(-c2nc(O)nc(-c3ccccc3)n2)c1)C(=O)C1(C(F)(F)F)CCCC1` [Example 1-238], the pIC50 is 8.13.

The compound `COCC(C)(C)C(=O)N(C)Cc1ccc(Cl)c(-c2nc(O)nc(-c3ccccc3)n2)c1` [Example 1-239] gave a pIC50 of 6.37.

`CC1(C)CCN(Cc2ccc(Cl)c(-c3nc(O)nc(-c4ccccc4)n3)c2)C1=O` [Example 1-240]: the pIC50 is 6.37.

In the case of `CC1(C)CCCN(Cc2ccc(Cl)c(-c3nc(O)nc(-c4ccccc4)n3)c2)C1=O` [Example 1-241], the pIC50 was 6.56. The pIC50 values of the last two compounds are within 0.2 log units of each other.

In turn, `CO[C@](C)(C(=O)N(C)Cc1ccc(Cl)c(-c2nc(O)nc(-c3ccccc3)n2)c1)C(F)(F)F` [Example 1-242] gave a pIC50 of 7.09. Compared with the last compound, the pIC50 is 0.53 log units higher.

For the compound `CO[C@@](C)(C(=O)N(C)Cc1ccc(Cl)c(-c2nc(O)nc(-c3ccccc3)n2)c1)C(F)(F)F` [Example 1-243], the pIC50 was 6.92.

`CN(Cc1ccc(Cl)c(-c2nc(O)nc(-c3ccccc3)n2)c1)C(=O)C1(C(F)(F)F)CCCCC1` [Example 1-244]: the pIC50 was 7.68.

`CCCC(C)(C)C(=O)N(C)Cc1ccc(Cl)c(-c2nc(O)nc(-c3ccccc3)n2)c1` [Example 1-245] showed a pIC50 of 6.97.
